Results: patent US5120752A, “Cyclopropyl derivative lipoxygenase inhibitors” (Abbott Laboratories, priority 1990, dated 1992)

system: LTB4 biosynthesis in human whole blood; experiment: Inhibition of calcium ionophore-induced LTB4 biosynthesis in human whole blood; format: cell-based; settings: 0.39 μM, read-out: Inhibition of Leukotriene Biosynthesis (% at 0.39 μM)
Procedure: Inhibition of leukotriene biosynthesis was evaluated in an assay, involving calcium ionophore-induced LTB4 biosynthesis expressed by human whole blood. Heparinized (20 U/mL) human blood (0.3 mL) was preincubated with test compound or vehicle for 15 min. at 37° C. Eicosanoid biosynthesis was initiated by adding calcium ionophore (A23187) in DMSO to a final concentration of 50 μM and terminated after 30 min. by rapid cooling of the blood in an ice bath and centrifuging at 3° C. for 10 min at 2500×g. The plasma was mixed with 4 volumes of methanol and allowed to stand for at least 30 min. at 3° C. prior to centrifuging at 1800×g for 10 min. The level of LTB4 in aliquots of the methanol-plasma extract was analyzed by radio-immunoassay or enyme-immunoassay techniques.

Row | SMILES | inhibition at 0.39 µM
1 | CNC(=O)N(O)C[C@@H]1C[C@H]1c1cccc(Oc2ccccn2)c1 (relative stereo) [Example 171, N-(1-trans-(2-(3-(2-pyridyloxy)phenyl)cyclopropyl)methyl)-N-hydroxy-N'-methylurea] | 40%

same assay, conditions: A23187 50 μM, 15 min preincubation, read-out: Inhibition of Leukotriene Biosynthesis IC50

Row | SMILES | IC50
2 | CNC(=O)N(O)C(C)[C@@H]1C[C@H]1c1ccc(C)o1 (stereo partly drawn) [Example 184, N-(1-trans-(2-(5-methyl-2-furanyl)cyclopropyl)ethyl)-N-hydroxy-N'-methylurea] | 850 nM
3 | NC(=O)N(O)C[C@@H]1C[C@H]1c1cccc(Oc2ccc(OCCO)cc2)c1 (relative stereo) [Example 161, N-(1-trans-(2-(3-(4-(2-hydroxyethoxy)phenoxy)phenyl)cyclopropyl)methyl)-N-hydroxyurea] | 170 nM
4 | CCc1ccc(Oc2cccc([C@@H]3C[C@H]3CN(O)C(=O)NC)c2)cc1 (relative stereo) [Example 175, N-(1-trans-(2-(3-(4-ethylphenoxy)phenyl)cyclopropyl)methyl)-N-hydroxy-N'-methyl-hydroxyurea] | 200 nM
5 | CNC(=O)N(O)C(C)[C@@H]1C[C@H]1c1ccco1 (stereo partly drawn) [Example 183, N-(1-trans-(2-(2-furanyl)cyclopropyl)ethyl)-N-hydroxy-N'-methylurea] | 620 nM
6 | NC(=O)N(O)C[C@@H]1C[C@H]1c1cnc(Oc2ccc(Cl)cc2)s1 (relative stereo) [Example 199, N-(1-trans-(2-(2-(4-chlorophenoxy)-5-thiazolyl)cyclopropyl)methyl)-N-hydroxyurea] | 60 nM
7 | NC(=O)N(O)C[C@@H]1C[C@H]1c1cccc(Oc2ccc(O)cc2)c1 (relative stereo) [Example 160, N-(1-trans-(2-(3(4-hydroxyphenoxy)phenyl)cyclopropyl)methyl)-N-hydroxyurea] | 470 nM
8 | NC(=O)N(O)C[C@@H]1C[C@H]1c1cccc(Oc2cnc3ccccc3c2)c1 (relative stereo) [Example 164, N-(1-trans-(2-(3-(3-quinonyloxy)phenyl)cyclopropyl)methyl)-N-hydroxyurea] | 610 nM
9 | CCOc1ccc(Oc2cccc([C@@H]3C[C@H]3CN(O)C(=O)NC3CC3)c2)cc1 (relative stereo) [Example 165] | 740 nM
10 | CC([C@@H]1C[C@H]1c1cccs1)N(O)C(N)=O (stereo partly drawn) [Example 197, N-(1-trans-(2-(2-thienyl)cyclopropyl)ethyl)-N-hydroxyurea] | 1600 nM
11 | CNC(=O)N(O)C[C@@H]1C[C@H]1c1cccc(Oc2cccc(C)c2)c1 (relative stereo) [Example 173, N-(1-trans-(2-(3-(3-methylphenoxy)phenyl)cyclopropyl)methyl)-N-hydroxy-N-methylurea] | 230 nM
12 | Cc1cccc(Oc2cccc([C@@H]3C[C@H]3CN(O)C(N)=O)c2)n1 (relative stereo) [Example 163, N-(1-trans-(2-(3-(6-methyl-2-pyridyloxy)phenyl)cyclopropyl)methyl)-N-hydroxyurea] | 250 nM
13 | CNC(=O)N(O)C(C)[C@@H]1C[C@H]1c1ccc(C)s1 (stereo partly drawn) [Example 181, N-(1-trans-(2-(5-methyl-2-thienyl)cyclopropyl)ethyl)-N-hydroxy-N'-methylure] | 600 nM
14 | CNC(=O)N(O)C(C)[C@@H]1C[C@H]1c1ccoc1 (stereo partly drawn) [Example 191, N-(1-trans-(2-(3-furanyl)cyclopropyl)ethyl)-N-hydroxy-N'-methylurea] | 830 nM
15 | CNC(=O)N(O)C(C)[C@@H]1C[C@H]1c1ccsc1 (stereo partly drawn) [Example 186, N-(1-trans-(2-(3-thienyl)cyclopropyl)ethyl)-N-hydroxy-N'-methylurea] | 470 nM
16 | CC(=O)N(O)C(C)[C@@H]1C[C@H]1c1cccs1 (stereo partly drawn) [Example 196, N-(1-trans-(2-(2-thienyl)cyclopropyl)ethyl)-N-hydroxyacetamide] | 980 nM
17 | Cc1ccc(Oc2cccc([C@@H]3C[C@H]3C(C)CN(O)C(N)=O)c2)cc1 (stereo partly drawn) [Example 162, N-(2-trans-(2-(3-(4-methylphenoxy)phenyl)cyclopropyl)propyl)-N-hydroxyurea] | 250 nM
